“And” between values parts separate entries of the source, which are not always exact repeats. Equal values may be shown once.
Experiments:
[1] = biological target: L1 EN (LINE-1 retrotransposon endonuclease domain) (Homo sapiens, UniProt O00370, N5T); test: Fluorescent oligonucleotide EN nicking activity assay; format: biochemical
APE1 = biological target: T1, APE1 (Homo sapiens, UniProt P27695); test: APE1 fluorescent oligonucleotide activity assay (abasic site substrate); format: biochemical; conditions: for activity at 25 µM: read-out: APE1 activity (%)
T1 construct: purchased New England Biolabs (NEB) M0282S

[2] = tested on: substrate oligonucleotide used in the EN activity assay; format: binding; parameters: key to Binding Detected? (Y/N): Binding Detected? (Y/N); Binding Detected? (Y/N)
L1 retrotransposition = test: HeLa dual-luciferase L1 retrotransposition assay; format: cell-based, human
HeLa Tet-On cells = conditions: human
[3] = read-out: EN activity, percent of no inhibitor control

L1 EN (LINE-1 retrotransposon endonuclease domain), sequence (O00370 1-239 N5T): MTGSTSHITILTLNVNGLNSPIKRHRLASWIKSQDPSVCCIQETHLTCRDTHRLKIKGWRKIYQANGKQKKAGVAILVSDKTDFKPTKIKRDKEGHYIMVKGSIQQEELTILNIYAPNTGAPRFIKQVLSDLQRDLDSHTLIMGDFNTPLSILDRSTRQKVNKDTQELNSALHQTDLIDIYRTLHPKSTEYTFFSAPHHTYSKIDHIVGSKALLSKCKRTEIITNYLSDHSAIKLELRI

SMILES	EN activity, percent of no inhibitor control ([1]; 0.5 µM)	EN activity, percent of no inhibitor control ([1]; 10 µM)	EN activity, percent of no inhibitor control ([1]; 25 µM)	EN activity, percent of no inhibitor control ([1]; 100 µM)	EN activity, percent of no inhibitor control ([1]; 250 µM)	EN activity, percent of no inhibitor control ([1]; 500 µM)	remaining activity at 0.5 µM [1, 3]	remaining activity at 25 µM [1, 3]	remaining activity at 100 µM [1, 3]	APE1 percent activity, Replicate 1 (APE1)	APE1 percent activity, Replicate 2 (APE1)	APE1 percent activity, Replicate 3 (APE1)	APE1 percent activity, average (APE1)	activity at 25 µM (APE1)	Binding Detected? (Y/N) [2]	Luciferase (retrotransposition), average (L1 retrotransposition)	Luciferase (retrotransposition), replicates (L1 retrotransposition)	PrestoBlue (viability), average (HeLa Tet-On cells)	other results
Cc1cc(=O)oc2c3c(ccc12)O/C(=N/Nc1ccc([N+](=O)[O-])cc1[N+](=O)[O-])C3=O [AD5]	83.4432% and 74.5276%	77.2953% and 59.874% and 46.95%	51.0006% and 46.7642%	9.806% and 12.2088%	10.849% and 15.1279%	8.917% and 12.6828%	82.5%	46.1%	7.29%	111.351%	107.526%	109.094%	109.324%	109 ± 1.9%	N	7.139	5.447 and 9.3633 and 6.616 and 7.129	15.98	EN activity, percent of no inhibitor control ([1]; 2 µM): 70.978% and 73.9003%; EN activity, percent of no inhibitor control ([1]; 5 µM): 74.0185% and 75.6649%; remaining activity at 2 µM [1, 3]: 78.9%; remaining activity at 5 µM [1, 3]: 74.7%; remaining activity at 250 µM [1, 3]: 12%; remaining activity at 500 µM [1, 3]: 9.9%; Effect on L1 retrotransposition (L1 retrotransposition): did not significantly impact retrotransposition
O=C1c2ccc(Oc3ccc4c(c3)C(=O)N(Nc3ccc([N+](=O)[O-])cc3[N+](=O)[O-])C4=O)cc2C(=O)N1Nc1ccc([N+](=O)[O-])cc1[N+](=O)[O-] [AD13]	119.788% and 111.52%	92.6481% and 80.1764%	33.9668% and 41.2844%	1.558% and 1.832%	1.124% and 2.509% and 2.58%	0.9149% and 2.171% and 1.168%	114%	25.1%	0.968%	97.407%	88.0071%	67.6438%	84.3526%	84.4 ± 15.2%	N	4.925	6.1144 and 4.934 and 4.878 and 3.774	12.09	EN activity, percent of no inhibitor control ([1]; 50 µM): 7.541% and 8.862% and 3.766%; EN activity, percent of no inhibitor control ([1]; 1000 µM): 5.545% and 2.613% and 9.084%; remaining activity at 10 µM [1, 3]: 97.9%; remaining activity at […] [1, 3]: 89.7%

Reference: paper PMC11078990, “Identification and characterization of small molecule inhibitors of the LINE-1 retrotransposon endonuclease” (Nature Communications, 2024)
